Measurements taken from PubChem BioAssay AID192 (DTP/NCI, 2004).
“And” between values parts separate entries of the source, which are not always exact repeats. Equal values may be shown once. Toxic doses and inconclusive results are not listed.

Test system: BDF1 mice, B16 melanoma ip, median survival T/C
Assay: NCI In Vivo Anticancer Drug Screen. Data for tumor model B16 Melanoma (intraperitoneal) in B6D2F1 (BDF1) mice
Settings: endpoint: median survival time, higher = longer survival
Procedure, shortened: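 Transplantable tumor model; survival or tumor size measured; reported as T/C, treated over vehicle control.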

[1] = dose: 0.06 mg/kg/injection, schedule: Q01DX009 (ip), vehicle: water
[2] = dose: 0.25 mg/kg/injection, schedule: Q01DX009 (ip), vehicle: water
[3] = dose: 0.5 mg/kg/injection, schedule: Q01DX009 (ip), vehicle: water

## CC[C@]1(O)C[C@H]2CN(CCc3c([nH]c4ccccc34)[C@@](C(=O)OC)(c3cc4c(cc3OC)N(C=O)[C@H]3[C@@](O)(C(=O)OC)[C@H](OC(C)=O)[C@]5(CC)C=CCN6CC[C@]43[C@@H]65)C2)C1
dose: 0.06 mg/kg/injection, schedule: Q01DX009 (ip), vehicle: saline
  T/C: 154 % of control
[1]
  T/C: 168 % of control
dose: 0.06 mg/kg/injection, schedule: Q01DX017 (ip), vehicle: saline
  T/C: 156 % of control
dose: 0.08 mg/kg/injection, schedule: Q01DX009 (ip), vehicle: water
  T/C: 123 % of control
dose: 0.12 mg/kg/injection, schedule: Q04DX003 (ip), vehicle: saline
  T/C: 123 % of control
dose: 0.13 mg/kg/injection, schedule: Q01DX017 (ip), vehicle: saline
  T/C: 181 % of control
dose: 0.13 mg/kg/injection, schedule: Q04DX003 (ip), vehicle: saline
  T/C: 110 % of control
dose: 0.18 mg/kg/injection, schedule: Q01DX005 (ip), vehicle: saline
  T/C: 121 % of control
dose: 0.2 mg/kg/injection, schedule: Q01DX009 (ip), vehicle: saline
  T/C: 152 % of control and 171 % of control
dose: 0.23 mg/kg/injection, schedule: Q04DX003 (ip), vehicle: water
  T/C: 119 % of control and 121 % of control
[2]
  T/C: 176 % of control and 189 % of control
dose: 0.25 mg/kg/injection, schedule: Q01DX017 (ip), vehicle: saline
  T/C: 197 % of control
dose: 0.3 mg/kg/injection, schedule: Q01DX005 (ip), vehicle: saline
  T/C: 119 % of control
dose: 0.36 mg/kg/injection, schedule: Q01DX009 (ip), vehicle: water
  T/C: 163 % of control
dose: 0.36 mg/kg/injection, schedule: Q04DX003 (ip), vehicle: saline
  T/C: 114 % of control
dose: 0.39 mg/kg/injection, schedule: Q04DX003 (ip), vehicle: saline
  T/C: 124 % of control
dose: 0.39 mg/kg/injection, schedule: Q04DX003 (ip), vehicle: water
  T/C: 119 % of control
dose: 0.4 mg/kg/injection, schedule: Q01DX009 (ip), vehicle: saline
  T/C: 178 % of control
dose: 0.5 mg/kg/injection, schedule: Q01DX001 (ip), vehicle: saline
  T/C: 120 % of control
[3]
  T/C: 155 % of control and 163 % of control and 192 % of control
dose: 0.5 mg/kg/injection, schedule: Q04DX003 (ip), vehicle: saline
  T/C: 154 % of control
dose: 0.5 mg/kg/injection, schedule: Q04DX005 (ip), vehicle: saline
  T/C: 163 % of control
dose: 0.54 mg/kg/injection, schedule: Q04DX003 (ip), vehicle: saline
  T/C: 157 % of control
dose: 0.6 mg/kg/injection, schedule: Q04DX003 (ip), vehicle: saline
  T/C: 150 % of control and 152 % of control and 176 % of control
dose: 0.65 mg/kg/injection, schedule: Q01DX001 (ip), vehicle: water
  T/C: 118 % of control and 120 % of control
dose: 0.65 mg/kg/injection, schedule: Q04DX003 (ip), vehicle: saline
  T/C: 102 % of control
dose: 0.75 mg/kg/injection, schedule: Q04DX003 (ip), vehicle: saline
  T/C: 152 % of control
dose: 0.8 mg/kg/injection, schedule: Q04DX003 (ip), vehicle: water
  T/C: 116 % of control
dose: 1.0 mg/kg/injection, schedule: Q01DX001 (ip), vehicle: saline
  T/C: 120 % of control
dose: 1.0 mg/kg/injection, schedule: Q04DX005 (ip), vehicle: saline
  T/C: 181 % of control
dose: 1.08 mg/kg/injection, schedule: Q01DX001 (ip), vehicle: water
  T/C: 124 % of control
dose: 1.08 mg/kg/injection, schedule: Q04DX003 (ip), vehicle: saline
  T/C: 156 % of control
dose: 1.2 mg/kg/injection, schedule: Q04DX003 (ip), vehicle: saline
  T/C: 160 % of control and 198 % of control
dose: 1.5 mg/kg/injection, schedule: Q04DX003 (ip), vehicle: saline
  T/C: 150 % of control and 158 % of control
dose: 1.67 mg/kg/injection, schedule: Q04DX003 (ip), vehicle: saline
  T/C: 54 % of control
dose: 1.8 mg/kg/injection, schedule: Q01DX001 (ip), vehicle: water
  T/C: 122 % of control and 124 % of control
dose: 1.8 mg/kg/injection, schedule: Q04DX003 (ip), vehicle: saline
  T/C: 159 % of control
dose: 1.8 mg/kg/injection, schedule: Q04DX003 (ip), vehicle: water
  T/C: 151 % of control
dose: 2.0 mg/kg/injection, schedule: Q04DX003 (ip), vehicle: saline
  T/C: 173 % of control and 180 % of control
dose: 3.0 mg/kg/injection, schedule: Q04DX003 (ip), vehicle: saline
  T/C: 67 % of control
dose: 15.63 micrograms/kg/injection, schedule: Q01DX009 (ip), vehicle: water
  T/C: 110 % of control
dose: 62.5 micrograms/kg/injection, schedule: Q01DX009 (ip), vehicle: water
  T/C: 150 % of control
dose: 78.0 micrograms/kg/injection, schedule: Q01DX009 (ip), vehicle: saline
  T/C: 165 % of control
dose: 78.0 micrograms/kg/injection, schedule: Q01DX009 (ip), vehicle: water
  T/C: 123 % of control
dose: 125.0 micrograms/kg/injection, schedule: Q01DX009 (ip), vehicle: water
  T/C: 159 % of control
dose: 130.0 micrograms/kg/injection, schedule: Q01DX009 (ip), vehicle: saline
  T/C: 157 % of control
dose: 216.0 micrograms/kg/injection, schedule: Q01DX009 (ip), vehicle: saline
  T/C: 183 % of control
dose: 216.0 micrograms/kg/injection, schedule: Q04DX003 (ip), vehicle: saline
  T/C: 123 % of control
dose: 250.0 micrograms/kg/injection, schedule: Q01DX009 (ip), vehicle: water
  T/C: 175 % of control
dose: 360.0 micrograms/kg/injection, schedule: Q01DX009 (ip), vehicle: saline
  T/C: 160 % of control
dose: 389.0 micrograms/kg/injection, schedule: Q04DX003 (ip), vehicle: saline
  T/C: 158 % of control
dose: 600.0 micrograms/kg/injection, schedule: Q04DX003 (ip), vehicle: saline
  T/C: 155 % of control
dose: 648.0 micrograms/kg/injection, schedule: Q04DX003 (ip), vehicle: saline
  T/C: 153 % of control
dose: 1000.0 micrograms/kg/injection, schedule: Q04DX003 (ip), vehicle: saline
  T/C: 152 % of control and 166 % of control
dose: 1080.0 micrograms/kg/injection, schedule: Q04DX003 (ip), vehicle: saline
  T/C: 157 % of control
dose: 1670.0 micrograms/kg/injection, schedule: Q04DX003 (ip), vehicle: saline
  T/C: 179 % of control
dose: 1800.0 micrograms/kg/injection, schedule: Q04DX003 (ip), vehicle: saline
  T/C: 174 % of control

## CCc1nc(N)nc(N)c1-c1ccc(Cl)c(Cl)c1.[Cl][Pd][Cl]
dose: 6.25 mg/kg/injection, schedule: Q01DX009 (ip), vehicle: saline
  T/C: 97 % of control

## NC(N)=NCCCOc1ccccc1
dose: 3.12 mg/kg/injection, schedule: Q01DX009 (ip), vehicle: Klucel (hydroxypropylcellulose) (HPC)
  T/C: 102 % of control
dose: 6.25 mg/kg/injection, schedule: Q01DX009 (ip), vehicle: Klucel (hydroxypropylcellulose) (HPC)
  T/C: 108 % of control
dose: 12.5 mg/kg/injection, schedule: Q01DX009 (ip), vehicle: Klucel (hydroxypropylcellulose) (HPC)
  T/C: 113 % of control
dose: 25.0 mg/kg/injection, schedule: Q01DX009 (ip), vehicle: Klucel (hydroxypropylcellulose) (HPC)
  T/C: 100 % of control
dose: 50.0 mg/kg/injection, schedule: Q01DX009 (ip), vehicle: Klucel (hydroxypropylcellulose) (HPC)
  T/C: 100 % of control

## COc1cccc(C)c1[N+](=O)[O-]
dose: 75.0 mg/kg/injection, schedule: Q04DX003 (ip), vehicle: Klucel (hydroxypropylcellulose) (HPC)
  T/C: 92 % of control
dose: 150.0 mg/kg/injection, schedule: Q04DX003 (ip), vehicle: Klucel (hydroxypropylcellulose) (HPC)
  T/C: 109 % of control
dose: 300.0 mg/kg/injection, schedule: Q04DX003 (ip), vehicle: Klucel (hydroxypropylcellulose) (HPC)
  T/C: 90 % of control

## O=S(=O)(c1ccc(Cl)cc1)c1ccc(Cl)cc1
dose: 100.0 mg/kg/injection, schedule: Q04DX003 (ip), vehicle: saline with Tween-80
  T/C: 100 % of control
dose: 200.0 mg/kg/injection, schedule: Q04DX003 (ip), vehicle: saline with Tween-80
  T/C: 97 % of control
dose: 400.0 mg/kg/injection, schedule: Q04DX003 (ip), vehicle: saline with Tween-80
  T/C: 100 % of control

## CCC1=C[C@H]2CN(CCc3c([nH]c4ccccc34)[C@@](C(=O)OC)(c3cc4c(cc3OC)N(C)[C@H]3[C@@](O)(C(=O)NC)[C@H](OC(C)=O)[C@]5(CC)C=CCN6CC[C@]43[C@@H]65)C2)C1
dose: 0.05 mg/kg/injection, schedule: Q01DX009 (ip), vehicle: Klucel (hydroxypropylcellulose) (HPC)
  T/C: 119 % of control
[1]
  T/C: 156 % of control
dose: 0.1 mg/kg/injection, schedule: Q01DX009 (ip), vehicle: Klucel (hydroxypropylcellulose) (HPC)
  T/C: 113 % of control
dose: 0.12 mg/kg/injection, schedule: Q01DX009 (ip), vehicle: water
  T/C: 160 % of control and 183 % of control
dose: 0.12 mg/kg/injection, schedule: Q04DX003 (ip), vehicle: water
  T/C: 123 % of control
dose: 0.2 mg/kg/injection, schedule: Q01DX009 (ip), vehicle: Klucel (hydroxypropylcellulose) (HPC)
  T/C: 124 % of control
[2]
  T/C: 181 % of control and 220 % of control
[3]
  T/C: 157 % of control
dose: 0.5 mg/kg/injection, schedule: Q04DX003 (ip), vehicle: water
  T/C: 156 % of control
dose: 1.6 mg/kg/injection, schedule: Q01DX009 (ip), vehicle: Klucel (hydroxypropylcellulose) (HPC)
  T/C: 181 % of control
